Measured values from patent publication US11111238B2, “Coumarin derivatives, processes for their preparation and uses thereof for the treatment of cancer” (Lead Discovery Center GmbH, priority 2017, dated 2021).

Tests used:
[1] = target: mitochondrial RNA-polymerase (POLRMT) (Mus musculus, UniProt Q8BKF1); assay: Homogeneous TR-FRET assay for mitochondrial transcription activity; assay type: biochemical; details: homogeneous TR-FRET assay according to Example 4; activity class
Summary of the method: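 Mouse POLRMT, TFAM and TFB2M with linearized pUC-LSP template in 10 mM Tris-HCl pH 7.5, 10 mM MgCl2, 40 mM NaCl; compounds at 10 μM or serial dilution, 10 min RT preincubation. Started with 500 μM each […], 2 h RT; 407 bp RNA product detected by hybridized Eu-cryptate/ATTO647N probe TR-FRET (ex 340, em 665 nm).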

[2] = test system: mitochondrial transcription (7S RNA) in HeLa cells; assay: Quantitative real time-PCR assay of inhibition of mitochondrial transcription (cellular qPCR assay IMT); assay type: cell-based; details: Homo sapiens, 4 h compound incubation, qRT-PCR according to Example 5, activity class
Description: Quantitative real-time PCR (qRT-PCR), based on the TagMan™ (Thermo Fisher Scientific, Waltham Mass.) technology, was carried out essentially as described in (Heid et al., 1996). HeLa cells were plated one day before compound treatment in RPMI medium supplemented with 10% Fetal Calf Serum and 2 mM L-glutamine. Cells were incubated with dilution series of compounds or vehicle (DMSO) for 4 h, prior to harvest and extraction of the RNA using the RNeasy Mini Kit (Qiagen, Hilden D), according to the manufacturer's instructions. RNA concentrations were measured spectroscopically, using a NanoDrop-2000 (Thermo Fisher Scientific, Waltham Mass.) and normalized prior to cDNA synthesis, using a ‘High-Capacity cDNA Reverse Transcription Kit’ (Thermo Fisher Scientific, Waltham Mass.). qRT-PCR was carried out using the ‘TaqMan Fast Advance Master Mix’ (Thermo Fisher Scientific, Waltham Mass.) on a 7500 Fast Real-Time PCR machine (Applied Biosystems, Foster City Calif.)
For these measurements, three genes were used to compare the effect of the scrutinized compounds in relation to their concentration. The POLRMT-gene was used to detect potential influences on nuclear transcription. Mitochondrial transcription in vivo was monitored by measurements 7S RNA. The TBP (TATA-box binding protein) gene was employed as the control (housekeeping gene) during qRT-PCR. The short-lived mitochondrial 7S RNA, which is not post-transcriptionally stabilized, allowed us to monitor rapid changes in mitochondrial transcription activity following compound addition. Biological triplicates were analyzed using the comparative CT Method (ΔΔCt) method (Bubner and Baldwin, 2004) and reported as Rq % values (Rq=Relative quantification=2-ΔΔCt).

Sequence of mitochondrial RNA-polymerase (POLRMT) (Q8BKF1 42-1207): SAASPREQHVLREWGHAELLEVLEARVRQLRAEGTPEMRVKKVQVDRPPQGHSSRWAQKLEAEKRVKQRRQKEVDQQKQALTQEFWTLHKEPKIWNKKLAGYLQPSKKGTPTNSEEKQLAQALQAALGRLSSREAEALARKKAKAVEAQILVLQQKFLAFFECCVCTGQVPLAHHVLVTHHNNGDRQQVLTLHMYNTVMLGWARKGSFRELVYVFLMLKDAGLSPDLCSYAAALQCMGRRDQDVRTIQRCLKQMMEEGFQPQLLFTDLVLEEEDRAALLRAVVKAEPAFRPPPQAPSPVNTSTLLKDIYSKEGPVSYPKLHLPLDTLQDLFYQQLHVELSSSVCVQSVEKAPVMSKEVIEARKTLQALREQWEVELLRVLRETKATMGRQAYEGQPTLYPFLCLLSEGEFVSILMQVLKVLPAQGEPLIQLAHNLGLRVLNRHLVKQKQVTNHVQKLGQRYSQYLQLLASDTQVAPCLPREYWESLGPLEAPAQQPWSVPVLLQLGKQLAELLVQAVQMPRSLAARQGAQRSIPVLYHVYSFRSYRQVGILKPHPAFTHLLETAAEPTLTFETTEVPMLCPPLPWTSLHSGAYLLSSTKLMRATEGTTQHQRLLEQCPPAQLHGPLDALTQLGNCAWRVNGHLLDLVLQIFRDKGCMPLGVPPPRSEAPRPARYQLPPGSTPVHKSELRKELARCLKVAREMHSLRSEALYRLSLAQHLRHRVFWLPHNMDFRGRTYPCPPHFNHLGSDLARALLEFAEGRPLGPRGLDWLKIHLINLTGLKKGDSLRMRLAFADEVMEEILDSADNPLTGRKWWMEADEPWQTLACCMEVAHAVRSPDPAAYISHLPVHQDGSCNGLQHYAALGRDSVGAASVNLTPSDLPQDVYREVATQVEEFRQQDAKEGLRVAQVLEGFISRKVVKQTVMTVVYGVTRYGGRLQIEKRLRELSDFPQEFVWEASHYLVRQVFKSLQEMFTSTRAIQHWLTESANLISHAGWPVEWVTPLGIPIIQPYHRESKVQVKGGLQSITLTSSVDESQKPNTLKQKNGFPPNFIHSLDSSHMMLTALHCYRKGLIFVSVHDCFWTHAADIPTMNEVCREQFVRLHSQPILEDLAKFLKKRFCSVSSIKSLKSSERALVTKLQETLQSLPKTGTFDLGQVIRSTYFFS

SMILES: CCOC(=O)C(C)Oc1ccc2c(-c3ccccc3Br)cc(=O)oc2c1 (centres unmarked) [Compound 81, ethyl 2-[4-(2-bromophenyl)-2-oxo-chromen-7-yl]oxypropanoate]
- IC50 [1]: 20 to 100 nM
- IC50 [2]: 10 to 50 nM

SMILES: Cc1ccccc1-c1cc(=O)oc2cc(OC(C)C(=O)N3CCC[C@H](C(=O)N(C)C)C3)ccc12 (stereo partly drawn) [Compound 84, (3S)-N,N-dimethyl-1-[2-[4-(o-tolyl)-2-oxo-chromen-7-yl]oxypropanoyl]piperidine-3-carboxamide]
- IC50 [1]: 20 to 100 nM
- IC50 [2]: 10 to 50 nM

SMILES: CCNC(=O)C(C)Oc1ccc2c(-c3ccccc3C)cc(=O)oc2c1 (centres unmarked) [Compound 85, N-ethyl-2-[4-(o-tolyl)-2-oxo-chromen-7-yl]oxy-propanamide]
- IC50 [1]: 20 to 100 nM
- IC50 [2]: 10 to 50 nM

SMILES: CCOC(=O)CC1CCCN(C(=O)C(C)Oc2ccc3c(-c4ccccc4Cl)cc(=O)oc3c2)C1 (centres unmarked) [Compound 86, ethyl 2-[1-[2-[4-(2-chlorophenyl)-2-oxo-chromen-7-yl]oxypropanoyl]-3-piperidyl]acetate]
- IC50 [1]: 20 to 100 nM
- IC50 [2]: 10 to 50 nM

SMILES: CC(Oc1ccc2c(-c3ccccc3Br)cc(=O)oc2c1)C(=O)N(C)C (centres unmarked) [Compound 89, 2-[4-(2-bromophenyl)-2-oxo-chromen-7-yl]oxy-N,N-dimethyl-propanamide]
- IC50 [1]: 20 to 100 nM
- IC50 [2]: < 10 nM

SMILES: CCNC(=O)C(C)Oc1ccc2c(-c3ccc(F)cc3Cl)cc(=O)oc2c1 (centres unmarked) [Compound 91, 2-[4-(2-chloro-4-fluoro-phenyl)-2-oxo-chromen-7-yl]oxy-N-ethyl-propanamide]
- IC50 [1]: 20 to 100 nM
- IC50 [2]: < 10 nM

SMILES: CC(C)OC(=O)C(C)Oc1ccc2c(-c3ccccc3Br)cc(=O)oc2c1 (centres unmarked) [Compound 92, isopropyl 2-[4-(2-bromophenyl)-2-oxo-chromen-7-yl]oxypropanoate]
- IC50 [1]: 20 to 100 nM
- IC50 [2]: < 10 nM

SMILES: CC(Oc1ccc2c(-c3ccccc3Cl)cc(=O)oc2c1)C(=O)N(C)C (centres unmarked) [Compound 93, 2-[4-(2-chlorophenyl)-2-oxo-chromen-7-yl]oxy-N,N-dimethyl-propanamide]
- IC50 [1]: 20 to 100 nM
- IC50 [2]: < 10 nM

SMILES: CCNC(=O)C(C)Oc1ccc2c(-c3ccccc3Cl)cc(=O)oc2c1 (centres unmarked) [Compound 98, 2-[4-(2-chlorophenyl)-2-oxo-chromen-7-yl]oxy-N-ethyl-propanamide]
- IC50 [1]: 100 to 1000 nM
- IC50 [2]: < 10 nM

SMILES: COC(=O)C[C@H]1CCCN(C(=O)[C@@H](C)Oc2ccc3c(-c4ccc(F)cc4Cl)cc(=O)oc3c2)C1 [Compound 104, methyl 2-[(3R)-1-[(2R)-2-[4-(2-chloro-4-fluoro-phenyl)-2-oxo-chromen-7-yl]oxypropanoyl]-3-piperidyl]acetate]
- IC50 [1]: < 20 nM
- IC50 [2]: 10 to 50 nM

SMILES: COC(=O)C[C@@H]1CCCN(C(=O)[C@@H](C)Oc2ccc3c(-c4ccc(F)cc4Cl)cc(=O)oc3c2)C1 [Compound 105, methyl 2-[(3S)-1-[(2R)-2-[4-(2-chloro-4-fluoro-phenyl)-2-oxo-chromen-7-yl]oxypropanoyl]-3-piperidyl]acetate]
- IC50 [1]: 20 to 100 nM
- IC50 [2]: 10 to 50 nM

SMILES: C[C@@H](Oc1ccc2c(-c3ccc(F)cc3Cl)cc(=O)oc2c1)C(=O)N1CCC[C@H](CC(=O)O)C1 [Compound 106, 2-[(3R)-1-[(2R)-2-[4-(2-chloro-4-fluoro-phenyl)-2-oxo-chromen-7-yl]oxypropanoyl]-3-piperidyl]acetic acid]
- IC50 [1]: < 20 nM
- IC50 [2]: < 10 nM

SMILES: C[C@@H](Oc1ccc2c(-c3ccc(F)cc3Cl)cc(=O)oc2c1)C(=O)N1CCC[C@@H](CC(=O)O)C1 [Compound 107, 2-[(3S)-1-[(2R)-2-[4-(2-chloro-4-fluoro-phenyl)-2-oxo-chromen-7-yl]oxypropanoyl]-3-piperidyl]acetic acid]
- IC50 [1]: < 20 nM
- IC50 [2]: < 10 nM

SMILES: CCC(Oc1ccc2c(-c3ccccc3Cl)cc(=O)oc2c1)C(=O)N1CCC[C@H](C(=O)O)C1 (stereo partly drawn) [Compound 110, (3S)-1-[2-[4-(2-chlorophenyl)-2-oxo-chromen-7-yl]oxybutanoyl]piperidine-3-carboxylic acid]
- IC50 [1]: < 20 nM
- IC50 [2]: < 10 nM

SMILES: CCOC(=O)[C@H]1CCCN(C(=O)[C@@H](C)Oc2ccc3c(-c4ccc(F)cc4Cl)cc(=O)oc3c2)C1 [Compound 111, ethyl (3S)-1-[(2R)-2-[4-(2-chloro-4-fluoro-phenyl)-2-oxo-chromen-7-yl]oxypropanoyl] piperidine-3-carboxylate]
- IC50 [1]: 20 to 100 nM
- IC50 [2]: 50 to 500 nM

SMILES: CC(C)NC(=O)C(C)(C)Oc1ccc2c(-c3ccccc3Cl)cc(=O)oc2c1 [Compound 114, 2-[4-(2-chlorophenyl)-2-oxo-chromen-7-yl]oxy-N-isopropyl-2-methyl-propanamide]
- IC50 [1]: 100 to 1000 nM
- IC50 [2]: 10 to 50 nM

SMILES: Cc1ccccc1-c1cc(=O)oc2cc(OC(C)(C)C(=O)NC(C)C)ccc12 [Compound 115, N-isopropyl-2-methyl-2-[4-(o-tolyl)-2-oxo-chromen-7-yl]oxy-propanamide]
- IC50 [1]: 100 to 1000 nM
- IC50 [2]: 10 to 50 nM

SMILES: CC(C)(Oc1ccc2c(-c3ccccc3Cl)cc(=O)oc2c1)C(=O)N1CCC[C@H](C(=O)O)C1 [Compound 116, (3S)-1-[2-[4-(2-chlorophenyl)-2-oxo-chromen-7-yl]oxy-2-methyl-propanoyl]piperidine-3-carboxylic acid]
- IC50 [1]: 100 to 1000 nM
- IC50 [2]: 500 to 5000 nM

SMILES: CC(C)OC(=O)[C@H]1CCCN(C(=O)[C@@H](C)Oc2ccc3c(-c4ccc(F)cc4Cl)cc(=O)oc3c2)C1 [Compound 117, isopropyl (3S)-1-[(2R)-2-[4-(2-chloro-4-fluoro-phenyl)-2-oxo-chromen-7-yl]oxypropanoyl] piperidine-3-carboxylate]
- IC50 [1]: 20 to 100 nM
- IC50 [2]: 50 to 500 nM

SMILES: C[C@@H](Oc1ccc2c(-c3ccc(F)cc3Cl)cc(=O)oc2c1)C(=O)N1CCC[C@H](C(=O)OC(C)(C)C)C1 [Compound 118, tert-butyl (3S)-1-[(2R)-2-[4-(2-chloro-4-fluoro-phenyl)-2-oxo-chromen-7-yl]oxypropanoyl] piperidine-3-carboxylate]
- IC50 [1]: 20 to 100 nM
- IC50 [2]: 50 to 500 nM

SMILES: CCCCCCCOC(=O)[C@H]1CCCN(C(=O)[C@@H](C)Oc2ccc3c(-c4ccc(F)cc4Cl)cc(=O)oc3c2)C1 [Compound 120, heptyl (3S)-1-[(2R)-2-[4-(2-chloro-4-fluoro-phenyl)-2-oxo-chromen-7-yl]oxypropanoyl] piperidine-3-carboxylate]
- IC50 [1]: 100 to 1000 nM
- IC50 [2]: < 10 nM

SMILES: CC(C)OC(=O)OCOC(=O)[C@H]1CCCN(C(=O)[C@@H](C)Oc2ccc3c(-c4ccc(F)cc4Cl)cc(=O)oc3c2)C1 [Compound 121, (S)-((isopropoxycarbonyl)oxy)methyl 1-((R)-2-((4-(2-chloro-4-fluorophenyl)-2-oxo-2H-chromen-7-yl)oxy)propanoyl)piperidine-3-carboxylate]
- IC50 [1]: 20 to 100 nM
- IC50 [2]: < 10 nM

SMILES: CNC(=O)[C@H]1CCCN(C(=O)[C@@H](C)Oc2ccc3c(-c4ccc(F)cc4Cl)cc(=O)oc3c2)C1 [Compound 122]
- IC50 [1]: 20 to 100 nM
- IC50 [2]: < 10 nM

SMILES: CC(C)OC(=O)C[C@H]1CCCN(C(=O)[C@@H](C)Oc2ccc3c(-c4ccc(F)cc4Cl)cc(=O)oc3c2)C1 [Compound 123, isopropyl 2-[(3R)-1-[(2R)-2-[4-(2-chloro-4-fluoro-phenyl)-2-oxo-chromen-7-yl]oxypropanoyl]-3-piperidyl]acetate]
- IC50 [1]: 20 to 100 nM
- IC50 [2]: < 10 nM

SMILES: C[C@@H](Oc1ccc2c(-c3ccc(F)cc3Cl)cc(=O)oc2c1)C(=O)N1CCC[C@H](CC(=O)OC(C)(C)C)C1 [Compound 124, tert-butyl 2-[(3R)-1-[(2R)-2-[4-(2-chloro-4-fluoro-phenyl)-2-oxo-chromen-7-yl]oxypropanoyl]-3-piperidyl]acetate]
- IC50 [1]: 20 to 100 nM
- IC50 [2]: < 10 nM

SMILES: C[C@@H](Oc1ccc2c(-c3ccc(F)cc3Cl)cc(=O)oc2c1)C(=O)N1CCC[C@H](CC(=O)OCCN2CCOCC2)C1 [Compound 125]
- IC50 [1]: < 20 nM
- IC50 [2]: < 10 nM

SMILES: CCCCCCCOC(=O)C[C@H]1CCCN(C(=O)[C@@H](C)Oc2ccc3c(-c4ccc(F)cc4Cl)cc(=O)oc3c2)C1 [Compound 126, heptyl 2-[(3R)-1-[(2R)-2-[4-(2-chloro-4-fluoro-phenyl)-2-oxo-chromen-7-yl]oxypropanoyl]-3-piperidyl]acetate]
- IC50 [1]: 100 to 1000 nM
- IC50 [2]: < 10 nM

SMILES: CC(C)OC(=O)OCOC(=O)C[C@H]1CCCN(C(=O)[C@@H](C)Oc2ccc3c(-c4ccc(F)cc4Cl)cc(=O)oc3c2)C1 [Compound 127, isopropoxycarbonyloxymethyl 2-[(3R)-1-[(2R)-2-[4-(2-chloro-4-fluoro-phenyl)-2-oxo-chromen-7-yl]oxypropanoyl]-3-piperidyl]acetate]
- IC50 [1]: 20 to 100 nM
- IC50 [2]: < 10 nM
